Results on eight compounds are retold here after ChEMBL document CHEMBL1201862, “PubChem BioAssay data set” (2004).

Each structure is given as a SMILES string.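 Growth conditions: 96-well plates. Treatment: test compound, 48 hours, 5 concentrations. Analysis: linear interpolation between bracketing concentrations; unreached endpoints set to highest concentration. GI50 marks 50% less growth.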 Calls of active or inactive are those of the source. No stated cut-off is given here; in the data, active = GI50 up to about 1.1 µM and inactive = higher.

Some test systems named below: NCI-H522; EKVX; HCT-15; SNB-75; NCI-H460; Malme-3M; SR; HCC 2998; SW-620; BT-549; SN12C; HL-60; UACC-62; NCI-H23; MDA-N; SF-539; SNB-19; SK-MEL-28; PC-3.
What all share (assay): NCI tumour cell line growth inhibition, 48 h

Regarding `O=c1c2cc(-c3ccccc3)cnc2sn1-c1ccc(Br)cc1`, the GI50 with NCI-H522 was 47.5 µM (inactive); in the assay on EKVX it was > 100 µM (inactive); with HCT-15 it was 88.9 µM; in the assay on SNB-75, > 100 µM (inactive); in the assay with NCI-H460 it was > 100 µM (inactive); with Malme-3M, 51.8 µM (inactive). For the same compound, the GI50 in the assay with SR, in the assay on HCC 2998, in the assay with SW-620, in the assay with BT-549, in the assay with SN12C and in the assay on HL-60 was > 100 µM (inactive) each time. The GI50 in the assay with UACC-62, with NCI-H23, in the assay with MDA-N, with SF-539, in the assay on SNB-19 and in the assay with SK-MEL-28 was > 100 µM (inactive) in each case. Besides, in the assay on PC-3, the GI50 was > 100 µM (inactive).
Take `O=C(N/N=C/C=C/c1ccc([N+](=O)[O-])o1)c1ccc(C(=O)N/N=C/C=C/c2ccc([N+](=O)[O-])o2)cc1`: the GI50 in the assay with NCI-H522 is 24.3 µM (inactive); in the assay with EKVX, > 100 µM (inactive); in the assay on HCT-15, 37.4 µM; with SNB-75 it was > 100 µM (inactive); in the assay on NCI-H460, > 40.8 µM (inactive); with Malme-3M, 12.7 µM (inactive). The GI50 in the assay with SR was 17.3 µM (inactive); in the assay on HCC 2998 it was 12.9 µM (inactive); with SW-620, 19.1 µM (inactive); in the assay on BT-549, > 100 µM (inactive); in the assay with SN12C it was > 37.9 µM (inactive); with HL-60, 19.8 µM (inactive). For the same compound, the GI50 in the assay on UACC-62 was > 86.3 µM (inactive); in the assay with NCI-H23, 49.8 µM (inactive); with MDA-N it was 29.5 µM (inactive); with SF-539 it was 6.18 µM (inactive); with SNB-19 it was 43.3 µM (inactive); with SK-MEL-28, 57 µM (inactive). Also, the GI50 with PC-3 is > 30.5 µM (inactive).
With `Fc1ccc(OCc2nc3cc(C(F)(F)F)ccc3nc2-c2ccccc2)cc1`, the GI50 with NCI-H522 is 28.4 µM (inactive); with EKVX it was > 86.9 µM (inactive); with HCT-15 it was over 66.2 µM; in the assay on SNB-75, > 100 µM (inactive); in the assay with NCI-H460, > 100 µM (inactive); in the assay with Malme-3M, > 58.9 µM (inactive). For the same compound, the GI50 in the assay on SR was 41.9 µM (inactive); in the assay on HCC 2998, 99.5 µM (inactive); in the assay with SW-620, > 100 µM (inactive); with BT-549, > 46.1 µM (inactive); with SN12C, > 100 µM (inactive); in the assay on HL-60, > 47 µM (inactive). The GI50 with UACC-62 was > 100 µM (inactive); in the assay on NCI-H23, > 100 µM (inactive); in the assay with MDA-N it was > 100 µM (inactive); in the assay on SF-539, > 100 µM (inactive); in the assay on SNB-19, > 83 µM (inactive); in the assay on SK-MEL-28, > 100 µM (inactive). In addition, in the assay with PC-3, the GI50 was > 100 µM (inactive).
Take `COC(=O)/C=C1/OC(c2ccccc2)=C(Cl)C1=O`: the GI50 in the assay with NCI-H522 is 17.9 µM (inactive); in the assay on EKVX it was 19.5 µM (inactive); in the assay with HCT-15, 8.97 µM; with SNB-75, 20.1 µM (inactive); in the assay with NCI-H460, 25 µM (inactive); in the assay with Malme-3M, 18.4 µM (inactive). Moreover, the GI50 in the assay with SR is 4.72 µM (inactive); in the assay on HCC 2998, 20.2 µM (inactive); in the assay on SW-620, 20.5 µM (inactive); with BT-549, 18.5 µM (inactive); in the assay on SN12C it was 23.1 µM (inactive); in the assay with HL-60 it was 3.95 µM (inactive). Also, the GI50 in the assay on UACC-62 was 18 µM (inactive); in the assay on NCI-H23, 19.4 µM (inactive); in the assay on MDA-N, 20.3 µM (inactive); in the assay on SF-539, 19.8 µM (inactive); in the assay on SNB-19 it was 31.3 µM (inactive); with SK-MEL-28 it was 21.1 µM (inactive). Moreover, the GI50 with PC-3 is 15.2 µM (inactive).
Take `COC(C)(C)OCCN1CCN(CCN2C3=C(C=C(C(C)=O)C3)Sc3ccccc32)CC1`: the GI50 was 17.5 µM (inactive) with NCI-H522; 42.1 µM (inactive) with EKVX; 19.6 µM in the assay with HCT-15; 30.5 µM (inactive) with SNB-75; 18.8 µM (inactive) with NCI-H460; 21.3 µM (inactive) in the assay with Malme-3M. Moreover, the GI50 in the assay on SR is 15.6 µM (inactive); with HCC 2998, 20.4 µM (inactive); in the assay with SW-620 it was 17.5 µM (inactive); in the assay on BT-549, 21.6 µM (inactive); with SN12C, 26.7 µM (inactive); with HL-60 it was 16.6 µM (inactive). For the same compound, the GI50 with UACC-62 is 15.3 µM (inactive); in the assay on NCI-H23, 27.2 µM (inactive); in the assay on MDA-N, 19 µM (inactive); in the assay with SF-539 it was 20.1 µM (inactive); in the assay on SNB-19 it was 32.1 µM (inactive); in the assay with SK-MEL-28, 16.4 µM (inactive). In the assay with PC-3, the GI50 is 24.8 µM (inactive).
As for `CC(=O)Nc1ccc(-c2nc3ccccc3s2)cc1Br`, the GI50 is > 72.3 µM (inactive) in the assay with NCI-H522; 10.5 µM (inactive) with EKVX; over 59.7 µM in the assay on HCT-15; 32.1 µM (inactive) in the assay on SNB-75; > 92.5 µM (inactive) in the assay on NCI-H460; > 62.1 µM (inactive) with Malme-3M. For the same compound, the GI50 was > 100 µM (inactive) in the assay on SR; 0.29 µM (active) in the assay with HCC 2998; > 100 µM (inactive) with SW-620; 29.1 µM (inactive) in the assay on BT-549; > 78.9 µM (inactive) in the assay with SN12C; > 100 µM (inactive) in the assay on HL-60. The GI50 in the assay with UACC-62 is > 72.1 µM (inactive); in the assay with NCI-H23 it was 27.4 µM (inactive); in the assay with MDA-N, > 100 µM (inactive); with SF-539, 27.3 µM (inactive); in the assay on SNB-19, 37.5 µM (inactive); in the assay with SK-MEL-28, > 100 µM (inactive). Besides, the GI50 with PC-3 was > 100 µM (inactive).
In the case of `O=C1Nc2ccccc2/C1=C1/Nc2ccccc2/C1=N\OCCOC1OCC(O)C(O)C1O` (configuration not stated), the GI50 was > 100 µM (inactive) with NCI-H522; > 100 µM (inactive) in the assay with EKVX; over 100 µM with HCT-15; > 100 µM (inactive) in the assay with SNB-75; > 100 µM (inactive) with NCI-H460; > 100 µM (inactive) with Malme-3M. For the same compound, the GI50 is 33 µM (inactive) in the assay with SR; 25.5 µM (inactive) with HCC 2998; > 100 µM (inactive) with SW-620; > 100 µM (inactive) in the assay on BT-549; > 100 µM (inactive) with SN12C; > 100 µM (inactive) in the assay on HL-60. In addition, the GI50 in the assay on UACC-62 was 95.1 µM (inactive); with NCI-H23, > 100 µM (inactive); with MDA-N it was > 100 µM (inactive); with SF-539 it was > 100 µM (inactive); with SNB-19, > 100 µM (inactive); with SK-MEL-28, > 100 µM (inactive). For the same compound, the GI50 in the assay on PC-3 is 27.2 µM (inactive).
For `COc1ccc2cc(CNCCOCCOCCNCc3ccc4cc(OC)ccc4c3)ccc2c1`, the GI50 is 1.54 µM (inactive) in the assay on NCI-H522; 1.57 µM (inactive) in the assay on EKVX; 0.527 µM in the assay with HCT-15; 1.38 µM (inactive) in the assay on SNB-75; 0.655 µM (active) in the assay with NCI-H460; 1.43 µM (inactive) in the assay with Malme-3M. In addition, the GI50 in the assay with SR is 0.251 µM (active); in the assay on HCC 2998, 0.104 µM (active); in the assay with SW-620, 0.348 µM (active); in the assay on BT-549, 1.89 µM (inactive); in the assay on SN12C, 1.72 µM (inactive); in the assay with HL-60, 0.216 µM (active). Besides, the GI50 in the assay with UACC-62 was 1.78 µM (inactive); with NCI-H23 it was 1.5 µM (inactive); with MDA-N, 0.889 µM (active); with SF-539, 1.54 µM (inactive); in the assay with SNB-19 it was 1.49 µM (inactive); in the assay with SK-MEL-28, 0.869 µM (active). For the same compound, the GI50 in the assay with PC-3 was 1.54 µM (inactive).
